Source: publication PMC3446843 (Toxicological Sciences, 2012)

What was measured:
[1] = tested on: isolated mouse liver mitochondria, complex I; assay: Oxygen consumption through complex I; details: for O2 cons CI EC20: inhibition of oxygen consumption, malate + glutamate + ADP, 2µM rotenone = 100%
[2] = tested on: isolated mouse liver mitochondria; assay: Loss of mitochondrial transmembrane potential; type: biochemical; details: 20% of maximal loss of ΔΨm (50µM mClCCP = 100%), 30-min incubation
[3] = tested on: isolated mouse liver mitochondria; assay: Cytochrome c release; type: biochemical; details: without Ca2+ pulse
[4] = tested on: isolated mouse liver mitochondria; assay: Mitochondrial swelling; details: without Ca2+ pulse
[5] = short incubation of isolated mitochondria; ref Kamel et al. (2012); cited from earlier work

ΔΨm loss EC20 [2] [µM] | induction of cytochrome c release (in words) [3] | Structure (SMILES) | O2 cons CI EC20 [1] [µM] | induction of mitochondrial swelling (in words) [4] | compound metabolized [5] [%] | effect on oxygen consumption (in words) ([1]; with malate/glutamate and/or succinate)
137.9 | unable to induce | O=C(O)Cc1ccccc1Nc1c(Cl)cccc1Cl [Diclofenac] | 29.8 |  |  | 
248.3 |  | CNS(=O)(=O)Cc1ccc2[nH]cc(CCN(C)C)c2c1 [Sumatriptan] | > 400 |  | 30 | 
3.4 | unable to trigger | Cc1c(C)c2c(c(C)c1O)CCC(C)(COc1ccc(CC3SC(=O)NC3=O)cc1)O2 (stereo not shown) [Troglitazone] | 6.0 | unable to trigger |  | 
416.1 |  | Cc1cn([C@H]2C[C@H](N=[N+]=[N-])[C@@H](CO)O2)c(=O)[nH]c1=O [Zidovudine] |  |  |  | increased oxygen consumption

Structure (SMILES) | ΔΨm loss EC20 [2] [µM] | induction of cytochrome c release (in words) [3] | O2 cons CI EC20 [1] [µM] | induction of mitochondrial swelling (in words) [4] | compound metabolized [5] [%] | effect on oxygen consumption (in words) ([1]; with malate/glutamate and/or succinate)
C1CCC(C(CC2CCCCN2)C2CCCCC2)CC1 (stereo not shown) [Perhexiline] | 3.2 | induced mitochondrial swelling and cytochrome c release when very low concentrations were used | 87.7 | induced mitochondrial swelling and cytochrome c release when very low concentrations were used |  | 
